± gives the standard deviation of the reports.
Row | glass transition temperature | Compound
1 | 325.00 °C | *C(=O)Nc1ccc(Oc2ccc(NC(=O)c3ccc4c(c3)C(=O)N(c3ccc(Oc5ccc(C6(c7ccc(Oc8ccc(N9C(=O)c%10ccc(*)cc%10C9=O)cc8)cc7)NC(=O)c7ccccc76)cc5)cc3)C4=O)cc2)cc1 (repeat unit)
2 | 246.00 °C | *c1ccc2c(c1)C(=O)N(c1cc(OCCCC)cc(N3C(=O)c4ccc(C(*)(C(F)(F)F)C(F)(F)F)cc4C3=O)c1)C2=O (repeat unit)
3 | 208.00 °C | *c1ccc(Oc2ccc(Oc3ccc(Oc4ccc(N5C(=O)c6ccc(Oc7ccc(-c8ccc(Oc9ccc%10c(c9)C(=O)N(*)C%10=O)cc8)cc7)cc6C5=O)cc4)cc3)cc2)cc1 (repeat unit)
4 | 148.00 °C | *Oc1ccc(C(=O)c2cccc(NC(=O)CCCCCCCCC(=O)Nc3ccc(C(=O)c4ccc(*)cc4)cc3)c2)cc1 (repeat unit)
5 | 119.50 °C | *CCN(CCOC(=O)Nc1ccc(-c2ccc(NC(=O)O*)c(C)c2)cc1C)c1ccc(/N=N/c2ccc([N+](=O)[O-])cc2)cc1 (repeat unit)
6 | 51.00 °C | *Oc1ccc(CC(NC(=O)Cc2ccc(OC(=O)CCC(*)=O)cc2)C(=O)OCCCCCCCC)cc1 (repeat unit)
7 | 290.00 °C | *Cc1ccc2oc(=O)c(C(=O)Nc3ccc(Oc4ccc(Oc5ccc(NC(=O)c6cc7cc(*)ccc7oc6=O)cc5)cc4)cc3)cc2c1 (repeat unit)
8 | 376.00 °C | *Oc1ccccc1-c1ccccc1Oc1ccc2c(=O)n3c4cc(-c5ccc6c(c5)nc5c7ccc(*)c8cccc(c(=O)n65)c87)ccc4nc3c3cccc1c23 (repeat unit)
9 | 109.00 °C | *CCCCOC(=O)Nc1ccc(Cc2ccc(NC(=O)O*)cc2)cc1 (repeat unit)
10 | 250.00 °C | *C(=O)Nc1ccc(C(c2ccc(NC(=O)c3ccc4c(c3)C(=O)N(c3c(C)cc(C)c(N5C(=O)c6ccc(*)cc6C5=O)c3C)C4=O)cc2)(C(F)(F)F)C(F)(F)F)cc1 (repeat unit)
11 | 105.00 °C | *Oc1ccc(Oc2ccc(/C=N/CCCC/N=C/c3ccc(*)cc3)cc2)cc1 (repeat unit)
12 | 140.00 °C | *Oc1cccc(NC(=O)CCCCCCC(=O)Nc2ccc(*)cc2)c1 (repeat unit)
13 | 180.00 °C | *CC(CC(*)(C#N)C#N)c1ccc(OC(C)=O)cc1 (repeat unit)
14 | 150 ± 44 °C | *CC(*)n1c2ccccc2c2ccccc21 (repeat unit) [Poly(N-vinyl carbazole)]
15 | 259.00 °C | *c1ccc(Oc2cccc(N3C(=O)c4ccc(-c5ccc6c(c5)C(=O)N(*)C6=O)cc4C3=O)c2)cc1 (repeat unit)
16 | 54.00 °C | *Oc1ccc(CC(NC(=O)Cc2ccc(OC(=O)CCCCCCC(*)=O)cc2)C(=O)OCC)cc1 (repeat unit)
17 | 125.00 °C | *Oc1ccc(-c2ccc(OC(*)(Oc3ccccc3)Oc3ccccc3)c(C)c2)cc1C (repeat unit)
18 | 47.00 °C | *CC(*)(C)C(=O)OCC(F)(F)C(F)(F)C(F)(F)C(F)F (repeat unit)
19 | 99.00 °C | *CCCC1(C)CCN(C(=O)CCC(=O)N2CCC(*)(C)CC2)CC1 (repeat unit)

Row | glass transition temperature | Compound
20 | -69.80 °C | *O[Si](*)(CCCOCCOCCOCCOCCOC)CCCOCCOCCOCCOCCOC (repeat unit)
21 | 106.00 °C | *C(=O)OCCCCCCCOC(=O)c1ccc(NC(=O)c2ccc(N3C(=O)c4ccc(*)cc4C3=O)cc2)cc1 (repeat unit)
22 | 365.00 °C | *c1ccc(Oc2ccc(-c3cc(-c4ccccc4)c4cc5nc(*)cc(-c6ccccc6)c5cc4n3)cc2)cc1 (repeat unit)
23 | 237.50 °C | *c1ccc(OCCCOc2ccc(N3C(=O)c4ccc(-c5cccc6c5C(=O)N(*)C6=O)cc4C3=O)cc2)cc1 (repeat unit)
24 | 267.00 °C | *C(=O)Nc1ccc(Oc2ccc(-c3ccc(Oc4ccc(NC(=O)c5ccc6c(c5)C(=O)N(c5ccc(Oc7ccc(S(=O)(=O)c8ccc(Oc9ccc(N%10C(=O)c%11ccc(*)cc%11C%10=O)cc9)cc8)cc7)cc5)C6=O)cc4)cc3)cc2)cc1 (repeat unit)
25 | -50.00 °C | *O[Si](*)(C)CCCCCCOC(=O)c1cc(OC(=O)c2ccc(OCCOCCOCCOCCOCCOCCOC)cc2)ccc1OC(=O)c1ccc(OCCOCCOCCOCCOCCOCCOC)cc1 (repeat unit)
26 | 219.00 °C | *Oc1ccc(Oc2ccc(C(=O)Nc3ccc(Oc4ccc(NC(=O)c5ccc(*)cc5)cc4)cc3)cc2)cc1-c1ccccc1 (repeat unit)
27 | 92.00 °C | *O[Si](*)(C)CCc1cc(C(=O)Oc2ccc(OCCCC)cc2)ccc1C(=O)Oc1ccc(OCCCC)cc1 (repeat unit)
28 | 267.00 °C | *C(=O)c1ccc2c(c1)C(=O)N(c1ccc(Oc3ccc(C(C)(C)c4ccccc4)cc3)c(N3C(=O)c4ccc(*)cc4C3=O)c1)C2=O (repeat unit)
29 | 246.00 °C | *CC(c1ccccc1)C1C(=O)NC(=O)C1* (repeat unit)
30 | 420.00 °C | *c1ccc(C2(c3ccc(-c4cc(-c5ccccc5)c5cc(-c6ccc7nc(*)cc(-c8ccccc8)c7c6)ccc5n4)cc3)c3ccccc3-c3ccccc32)cc1 (repeat unit)
31 | 0.00 °C | *CCN(C)C(=O)CCCCCCCCC(=O)N(*)C (repeat unit)
32 | 341.00 °C | *c1ccc(Cc2ccc(N3C(=O)C4CCC5C(=O)N(*)C(=O)C5C4C3=O)cc2)cc1 (repeat unit)
33 | 18.00 °C | *Oc1cc(OC(=O)c2ccc(OCCC)cc2)c(OC(=O)CCCCCCCCCCCCCCC(*)=O)cc1OC(=O)c1ccc(OCCC)cc1 (repeat unit)
34 | 114.00 °C | *CC(*)c1ccc([Si](O[Si](C)(C)C)(O[Si](C)(C)C)O[Si](C)(C)C)cc1 (repeat unit)
35 | 371.50 °C | *c1ccc2oc(-c3ccc(-c4nc5cc(C(*)(C(F)(F)F)C(F)(F)F)ccc5o4)cc3)nc2c1 (repeat unit)
36 | 166.00 °C | *c1ccc2c(c1)C(=O)N(c1ccc(OCCOCCOCCOc3ccc(N4C(=O)c5ccc(C(*)(C(F)(F)F)C(F)(F)F)cc5C4=O)cc3)cc1)C2=O (repeat unit)
37 | 85.00 °C | *CCCCCCCc1nc2ccc(-c3ccc4nc(*)oc4c3)cc2o1 (repeat unit)
38 | 305.00 °C | *c1ccc2c(c1)C(=O)N(c1cc(C(c3ccc(OC(=O)C45CC6CC(CC(C6)C4)C5)c(N4C(=O)c5ccc(C(*)(C(F)(F)F)C(F)(F)F)cc5C4=O)c3)(C(F)(F)F)C(F)(F)F)ccc1OC(=O)C13CC4CC(CC(C4)C1)C3)C2=O (repeat unit)

Row | Compound | glass transition temperature
39 | *CCCCCOC(=O)c1ccccc1C(=O)[O][Pb][O]C(=O)c1ccccc1C(=O)OCCCCCOC(=O)NCCCCCCNC(=O)O* (repeat unit) | -19.20 °C
40 | *CC(*)C(C)=O (repeat unit) | 115.00 °C
41 | *CC(*)CCC (repeat unit) [Poly(propylethylene)] | -35 ± 46 °C
42 | *CCN(*)CC (repeat unit) | -32.00 °C
43 | *OC(F)(C(*)(F)F)C(F)(F)F (repeat unit) | -73.00 °C
44 | *c1ccc(-c2nc3ccc(Oc4ccc(Oc5ccc(P(=O)(c6ccccc6)c6ccc(Oc7ccc(Oc8ccc9nc(*)c(-c%10ccccc%10)nc9c8)cc7)cc6)cc5)cc4)cc3nc2-c2ccccc2)cc1 (repeat unit) | 248.00 °C
